In patent US5486516A, “Furopyrimidine derivatives” (DowElanco, priority 1993, dated 1996):

Key:
[1] = system: Pyricularia oryzae (rice blast); assay: whole plant or invertebrate; assay type: in vivo; conditions: foliar, read-out: RICE BLAST control rating
[2] = system: Southern corn rootworm (Diabrotica undecimpuctata howardi Barber); assay: Mite/insect screen, corn rootworm; assay type: in vivo; conditions: Diabrotica, soil, read-out: CRW results (percent mortality); for mortality at 12 ppm: CRW rate 12.00 ppm; for mortality at 24 ppm: CRW rate 24.00 ppm
Method in brief: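 Five 2-3 instar larvae per cup were placed on sandy soil (15 g, with presoaked corn seed) treated 6–12 h earlier with 1 mL test solution, an emulsified acetone/alcohol formulation diluted in water. Cups kept at 23° C; mortality and phytotoxicity assessed as percent after standard exposures.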

[3] = system: Erysiphe graminis tritici (powdery mildew); assay: Plant pathology screen (Test 1), powdery mildew on wheat; conditions: Blumeria graminis, in Triticum aestivum, foliar, read-out: POWD MDEW control rating
Description: (§1) The test compounds were formulated for application by dissolving 50 mg of the compound into 1.25 ml of solvent. The solvent was prepared by mixing 50 ml of "Tween 20" (polyoxyethylene (20) sorbitan monolaurate emulsifier) with 475 ml of acetone and 475 ml of ethanol. The solvent/compound solution was diluted to 125 ml with deionized water. The resulting formulation contains 400 ppm test chemical. Lower concentrations were obtained by serial dilution with the solvent-surfactant mixture.
(§2) The formulated test compounds were applied by foliar spray.
(§3) The formulated technical compounds were sprayed on all foliar surfaces of the host plants (or cut berry) to past run-off. Single pots of each host plant were placed on raised, revolving pedestals in a fume hood. Test solutions were sprayed on all foliar surfaces. All treatments were allowed to dry and the plants were inoculated with the appropriate pathogens within 2-4 hours.
(§4) The effectiveness of test compounds in controlling disease was rated using the following scale.

[4] = system: Twospotted spider mites (Tetranychus urticae Koch); assay: Mite/insect screen, twospotted spider mites; assay type: in vivo; conditions: Tetranychus urticae, sprayed leaves, read-out: SM results (percent mortality); for mortality at 200 ppm: rate 200 ppm; for mortality at 400 ppm: rate 400 ppm
Method in brief: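 Percent mortality, along with phytotoxicity, was read after standard exposure periods. Beforehand, mites established on both surfaces of squash cotyledons received a runoff spray (10 psi) of water-diluted compound formulated in acetone/alcohol with sulfonate/nonionic emulsifiers.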

[5] = system: Pseudoperonospora cubensis (downy mildew); assay: Plant pathology screen (Test 1), downy mildew on squash; conditions: foliar, read-out: DOWN MDEW control rating
[6] = system: melon aphids (Aphis gossvpii Glover); assay: Mite/insect screen, melon aphids; assay type: in vivo; conditions: Aphis, sprayed leaves, read-out: MA results (percent mortality); for mortality at 200 ppm: rate 200 ppm; for mortality at 400 ppm: rate 400 ppm
Method in brief: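 Percent mortality of melon aphids was assessed after standard exposure periods. Infested squash cotyledons had been sprayed on both leaf surfaces until runoff at 10 psi with water-diluted test solutions. Compounds were formulated in acetone/alcohol (50:50) containing emulsifiers.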

[7] = system: southern armyworm (Spodopetra eridania Cramer); assay: Mite/insect screen, Southern armyworm; assay type: in vivo; conditions: Spodoptera eridania, sprayed leaves, read-out: SAW results (percent mortality); for mortality at 200 ppm: rate 200 ppm; for mortality at 400 ppm: rate 400 ppm
Method in brief: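 Southern armyworm larvae placed in Petri dishes with two excised squash leaves that had been sprayed to runoff (10 psi) with emulsified compound and air-dried for 1 h. Mortality in percent recorded after a standard exposure period; formulation acetone/alcohol plus Toximul R and S, water-diluted.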

[8] = system: Botrytis cinerea (gray mold); assay: Plant pathology screen (Test 1), gray mold on grape berries; conditions: read-out: GRAY MOLD control rating
Description: (§5) This screen was used to evaluate the efficacy of the present compounds against a variety of different organisms that cause plant diseases.
as §1
The formulated test compounds were applied by foliar spray. The following plant pathogens and their corresponding plants were employed.
as §3, §4

[9] = system: Puccinia recondita tritici (leaf rust); assay: Plant pathology screen (Test 1), leaf rust on wheat; conditions: in Triticum aestivum, foliar, read-out: LEAF RUST control rating
Description: as §5, §1, §2, §3, §4

SMILES | pest or weed control at 400 µg/mL [1] [%] | mortality at 12 ppm [2] [%] | mortality at 24 ppm [2] [%] | pest or weed control at 400 µg/mL [3] [%] | mortality at 200 ppm [4] [%] | mortality at 400 ppm [4] [%] | pest or weed control at 400 µg/mL [5] [%] | mortality at 200 ppm [6] [%] | mortality at 400 ppm [6] [%] | mortality at 200 ppm [7] [%] | mortality at 400 ppm [7] [%] | pest or weed control at 400 µg/mL [8] [%] | pest or weed control at 400 µg/mL [9] [%]
Cc1oc2ncnc(OCCCc3cccnc3)c2c1C [Example 13, 5,6-dimethyl-4-[3-(3-pyridinyl)propoxy]furo[2,3-d]pyrimidine] | 0 to 19 | 0 | 100 | 0 to 19 | 0 | 0 | 0 to 19 | 0 | 0 | 0 | 0 | 0 to 19 | 0 to 19
Cc1oc2ncnc(NCCc3ccc(Cl)cc3)c2c1C [Example 10, N-(2-(4-chlorophenyl)ethyl]-5,6-dimethylfuro[2,3-d]pyrimidin-4-amine] | 90 to 100 | 0 | 0 | 0 to 19 | 0 | 0 | 20 to 89 | 0 | 0 | 0 | 0 | 0 to 19 | 20 to 89
Cc1oc2ncnc(OCCc3ccc4c(c3)OCCO4)c2c1C [Example 75, 5,6-dimethyl-4-[2-[benzo[b]-1,4-dioxan-6-yl]ethoxy]furo[2,3-d]pyrimidine] | 0 to 19 | – | 0 | 0 to 19 | – | 0 | 20 to 89 | – | 0 | – | 40 | 0 to 19 | 0 to 19
CCCCOc1ccc(CCOc2ncnc3oc(C)c(C)c23)cc1 [Example 45, 5,6-dimethyl-4-[2-[4-(n-butoxy)phenyl]ethoxy]furo[2,3-d]pyrimidine] | 0 to 19 | 0 | 0 | 20 to 89 | 90 | 100 | 20 to 89 | 90 | 90 | 0 | 0 | 0 to 19 | 90 to 100
Cc1oc2ncnc(OCCc3ccc4ccccc4c3)c2c1C [Example 55, 5,6-dimethyl-4-[2-(2-naphthyl)ethoxy]furo[2,3-d]pyrimidine] | 0 to 19 | 0 | 0 | 0 to 19 | 0 | 0 | 0 to 19 | 0 | 0 | 0 | 0 | 0 to 19 | 20 to 89
Cc1oc2ncnc(OCCc3ccc(OC(F)(F)F)cc3)c2c1C [Example 69, 5,6-dimethyl-4-[2-[4-(trifluoromethoxy)phenyl]ethoxy]furo[2,3-d]pyrimidine] | 20 to 89 | – | 0 | 90 to 100 | – | 90 | 0 to 19 | – | 90 | – | 0 | 0 to 19 | 20 to 89
Cc1coc2ncnc(NCCc3ccc4ccccc4c3)c12 [Example 21, 5-methyl-N-[2-(2-naphthyl)ethyl]furo[2,3-d]pyrimidin-4-amine] | 0 to 19 | 100 | 100 | 90 to 100 | 80 | 60 | 90 to 100 | 100 | 80 | 0 | 0 | 0 to 19 | 90 to 100
Cc1coc2ncnc(NCCc3ccc(Cl)cc3)c12 [Example 11, 5-methyl-N-[2-(4-chlorophenyl)ethyl]furo[2,3-d]pyrimidin-4-amine] | 90 to 100 | 0 | 0 | 20 to 89 | 30 | 0 | 90 to 100 | 90 | 0 | 0 | 60 | 0 to 19 | 90 to 100
COc1ccc(Oc2ncnc3oc(C)c(C)c23)cc1 [Example 65, 5,6-dimethyl-4-(4-methoxyphenoxy)furo[2,3-d]pyrimidine] | 0 to 19 | 0 | 0 | 20 to 89 | 0 | 0 | 0 to 19 | 0 | 0 | 0 | 0 | 0 to 19 | 0 to 19
Cc1oc2ncnc(NCCc3ccc(OCC(F)(F)F)cc3)c2c1C [Example 73, 5,6-dimethyl-N-[2-[4-(2,2,2-trifluoroethoxy)phenyl]ethyl]furo[2,3-d]pyrimidin-4-amine] | 0 to 19 | – | 0 | 0 to 19 | – | 0 | 20 to 89 | – | 90 | – | 100 | 0 to 19 | 20 to 89
COc1ccc(CCNc2ncnc3oc(C)cc23)cc1 [Example 4, N-(2-(4-methoxyphenyl)ethyl]-6-methylfuro(2,3-d]pyrimidin-4-amine] | 20 to 89 | – | 0 | 0 to 19 | – | 0 | 0 to 19 | – | 0 | – | 0 | 0 to 19 | 90 to 100
COc1ccc(CCNc2ncnc3occ(C)c23)cc1 [Example 2, 5-methyl-N-[2-(4-methoxyphenyl)ethyl]furo[2,3-d]pyrimidin-4-amine] | 90 to 100 | 0 | 0 | 20 to 89 | 0 | 0 | 90 to 100 | 0 | 80 | 0 | 0 | 0 to 19 | 90 to 100
Cc1ccc(CCNc2ncnc3occ(C)c23)cc1 [Example 48, 5-methyl-N-[2-(4-methylphenyl)ethyl]furo[2,3-d]pyrimidin-4-amine] | 90 to 100 | 60 | 100 | 90 to 100 | 0 | 0 | 90 to 100 | 0 | 80 | 0 | 0 | 0 to 19 | 90 to 100
Cc1oc2ncnc(Oc3ccc(F)cc3Cl)c2c1C [Example 59, 4-(2-chloro-4-fluorophenoxy)-5,6-dimethylfuro[2,3-d]pyrimidine] | 0 to 19 | 0 | 0 | 90 to 100 | 0 | 0 | 0 to 19 | 0 | 0 | 0 | 0 | 0 to 19 | 20 to 89
